Assay results reported in the NIST ThermoML archive (doi:10.1016/j.fluid.2006.05.027).
± gives the expanded uncertainty stated by the source.

Settings: 298.15 K, Liquid, Vibrating tube method

## C=C(C)C1CC=C(C)CC1 (configuration not stated) [1-methyl-4-(1-methylethenyl)cyclohexene]
7640 kPa
  mass density: 844 ± 0.7 kg/m3
10000 kPa
  mass density: 845.6 ± 0.7 kg/m3
